Results on 28 molecules are retold here after PubChem BioAssay AID330 (DTP/NCI, 2004).

Where “and” joins values, the source holds several entries; their conditions need not be identical. Equal entries are not always repeated. Inconclusive results and toxic doses are left out.

The experiment has as its system P388 leukemia ip, CD2F1 mice, survival T/C. Description: NCI In Vivo Anticancer Drug Screen. Data for tumor model P388 Leukemia (intraperitoneal) in CD2F1 (CDF1) mice. To be noted: endpoint: median survival time, higher = longer survival. In a few lines: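 Mice carrying the transplanted tumor received test compound or vehicle. Survival was recorded in each group, and the value is the treated-group measurement divided by that of the vehicle-treated control group.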

The mark [1] stands for this setting: dose: 60.0 mg/kg/injection, schedule: Q01DX005 (ip), vehicle: saline with Tween-80.
[2] abbreviates: dose: 120.0 mg/kg/injection, schedule: Q01DX005 (ip), vehicle: saline with Tween-80.
Where [3] appears, read: dose: 240.0 mg/kg/injection, schedule: Q01DX005 (ip), vehicle: saline with Tween-80.
[4] abbreviates: dose: 50.0 mg/kg/injection, schedule: Q01DX009 (ip), vehicle: saline with Tween-80.
Where [5] appears, read: dose: 100.0 mg/kg/injection, schedule: Q01DX009 (ip), vehicle: saline with Tween-80.
Setting [6] is: dose: 200.0 mg/kg/injection, schedule: Q01DX009 (ip), vehicle: saline with Tween-80.
[7] abbreviates: dose: 25.0 mg/kg/injection, schedule: Q01DX005 (ip), vehicle: saline with Tween-80.
[8] abbreviates: dose: 50.0 mg/kg/injection, schedule: Q01DX005 (ip), vehicle: saline with Tween-80.
[9] abbreviates: dose: 100.0 mg/kg/injection, schedule: Q01DX005 (ip), vehicle: saline with Tween-80.
Setting [10] is: dose: 200.0 mg/kg/injection, schedule: Q01DX005 (ip), vehicle: saline with Tween-80.
The mark [11] stands for this setting: dose: 50.0 mg/kg/injection, schedule: Q01DX009 (ip), vehicle: saline.

As to `CC(=O)O[C@@H]1C[C@@]2(C)C(C)(C)C(=O)C=C[C@]2(C)[C@H]2CC[C@]3(C)C(=CC(=O)C3c3ccoc3)[C@]12C` (some centres undefined), the T/C reads like this: (dose: 8.5 mg/kg/injection, schedule: Q01DX005 (ip), vehicle: Klucel (hydroxypropylcellulose) (HPC)) 104 % of control; (dose: 17.0 mg/kg/injection, schedule: Q01DX005 (ip), vehicle: Klucel (hydroxypropylcellulose) (HPC)) 96 % of control; (dose: 34.0 mg/kg/injection, schedule: Q01DX005 (ip), vehicle: Klucel (hydroxypropylcellulose) (HPC)) 98 % of control; (dose: 68.0 mg/kg/injection, schedule: Q01DX005 (ip), vehicle: Klucel (hydroxypropylcellulose) (HPC)) 92 % of control; (dose: 136.0 mg/kg/injection, schedule: Q01DX005 (ip), vehicle: Klucel (hydroxypropylcellulose) (HPC)) 92 % of control.

`O=C(O)C1SCCCS1`: the T/C under setting [1] was 100 % of control, the T/C under setting [2] was 98 % of control and the T/C under setting [3] was 100 % of control.

With `O=C(Cc1ccccc1)NCCN1CCNCC1`, the T/C was 105 % of control (dose: 100.0 mg/kg/injection, schedule: Q01DX001 (ip), vehicle: saline with Tween-80); 108 % of control (dose: 200.0 mg/kg/injection, schedule: Q01DX001 (ip), vehicle: saline with Tween-80); 96 % of control (dose: 400.0 mg/kg/injection, schedule: Q01DX001 (ip), vehicle: saline with Tween-80).

On to `CCCCCCCCCCC1(CCCC)C(=O)NC(=O)NC1=O`, for which the T/C is, setting by setting: (dose: 25.0 mg/kg/injection, schedule: Q01DX009 (ip), vehicle: saline with Tween-80) 110 % of control; under setting [4], 108 % of control; under setting [5], 110 % of control.

Turning to `CC(C)=Nc1c(C(N)=O)c(-c2ccccc2)c(-c2ccccc2)n1-c1ccccc1`, the T/C reads like this: under setting [4], 107 % of control; under setting [5], 107 % of control; under setting [6], 98 % of control.

Take `OC1(O)/C=C\CCCCC/C=C\1`: the T/C under setting [7] is 100 % of control; the T/C under setting [8] was 101 % of control; the T/C under setting [9] was 99 % of control and 102 % of control; the T/C under setting [10] is 105 % of control.

`Cc1ccc2cccc(OC(=O)Nc3ccc(Cl)c(Cl)c3)c2n1`: the T/C reads like this: (dose: 12.5 mg/kg/injection, schedule: Q01DX009 (ip), vehicle: saline) 98 % of control; (dose: 25.0 mg/kg/injection, schedule: Q01DX009 (ip), vehicle: saline) 103 % of control; under setting [4], 91 % of control; under setting [11], 103 % of control; under setting [5], 105 % of control.

Turning to `Nc1cc(C(F)(F)F)cc(N)c1N`, the T/C reads like this: under setting [8], 104 % of control; under setting [9], 94 % of control; under setting [10], 99 % of control.

For `COC(=O)CCc1ccc(NP(=O)(N2CC2)N2CC2)cc1`, the T/C (dose: 12.5 mg/kg/injection, schedule: Q04DX003 (ip), vehicle: saline with Tween-80) is 100 % of control; the T/C (dose: 25.0 mg/kg/injection, schedule: Q04DX003 (ip), vehicle: saline with Tween-80) is 115 % of control; the T/C under setting [5] was 150 % of control; the T/C (dose: 132.0 mg/kg/injection, schedule: Q04DX003 (ip), vehicle: saline with Tween-80) was 150 % of control; the T/C under setting [6] was 90 % of control; the T/C (dose: 200.0 mg/kg/injection, schedule: Q04DX003 (ip), vehicle: saline with Tween-80) is 156 % of control. Further, the T/C (dose: 300.0 mg/kg/injection, schedule: Q04DX003 (ip), vehicle: saline with Tween-80) was 90 % of control.

`C=CCN(C#N)CC=C`: the T/C under setting [11] was 96 % of control.

Take `Cc1cc(N/N=C/c2ccc(Cl)cc2)c2cc3c(cc2n1)OCO3`: the T/C by setting is: (dose: 12.5 mg/kg/injection, schedule: Q01DX005 (ip), vehicle: Klucel (hydroxypropylcellulose) (HPC)) 98 % of control; (dose: 25.0 mg/kg/injection, schedule: Q01DX005 (ip), vehicle: Klucel (hydroxypropylcellulose) (HPC)) 103 % of control; (dose: 50.0 mg/kg/injection, schedule: Q01DX005 (ip), vehicle: Klucel (hydroxypropylcellulose) (HPC)) 102 % of control and 95 % of control.

Take `COCC1N=C(COCc2ccccc2)OC1c1ccccc1` (centres undefined): the T/C was 100 % of control under setting [1], 95 % of control under setting [2] and 100 % of control under setting [3].

With `CC(/C=N\N=C(N)N)=N/N=C(N)N`, the T/C was 100 % of control (dose: 14.6 mg/kg/injection, schedule: Q01DX009 (ip), vehicle: saline) and 120 % of control (dose: 22.0 mg/kg/injection, schedule: Q01DX009 (ip), vehicle: saline).

In the case of `CCOC(=O)C(=O)Cc1nc2ccccc2nc1C`, the T/C is 93 % of control under setting [1] and 97 % of control under setting [2].

In the case of `CCC[CH2][Sn]1([CH2]CCC)[O]C2C(O)OC(CO)C(O)C2[O]1` (centres undefined), the T/C runs as follows: (dose: 1.56 mg/kg/injection, schedule: Q04DX003 (ip), vehicle: saline) 107 % of control; (dose: 3.12 mg/kg/injection, schedule: Q04DX003 (ip), vehicle: saline) 107 % of control and 109 % of control; (dose: 6.25 mg/kg/injection, schedule: Q04DX003 (ip), vehicle: saline) 111 % of control.

As to `CC(C)(C)c1cc(CCCCCCCC2(CCCCCCCc3cc(C(C)(C)C)cc(C(C)(C)C)c3)OC(COCCOCCOCCCC#N)C(COCCOCCOCCCC#N)O2)cc(C(C)(C)C)c1` (centres undefined), the T/C was 97 % of control under setting [7], 95 % of control under setting [8], 113 % of control under setting [9] and 100 % of control under setting [10].

On to `Cc1cc2c(cc1C)NS(=O)(=O)N2`, for which the T/C reads like this: under setting [1], 102 % of control; under setting [2], 109 % of control; under setting [3], 102 % of control.

For the molecule `O=C(NC(Cc1ccc(O)cc1)C(=O)O)C(=O)c1c[nH]c2ccc([N+](=O)[O-])cc12` (centres undefined), the T/C was 97 % of control under setting [1], 97 % of control under setting [2] and 89 % of control under setting [3].

`COC(=O)c1ccc(SCCC2(COS(C)(=O)=O)OCCO2)cc1`: the T/C is, setting by setting: (dose: 50.0 mg/kg/injection, schedule: Q01DX009 (ip), vehicle: Klucel (hydroxypropylcellulose) (HPC)) 106 % of control; (dose: 100.0 mg/kg/injection, schedule: Q01DX009 (ip), vehicle: Klucel (hydroxypropylcellulose) (HPC)) 102 % of control; (dose: 200.0 mg/kg/injection, schedule: Q01DX009 (ip), vehicle: Klucel (hydroxypropylcellulose) (HPC)) 96 % of control.

Consider `CC(C)CC(N)C(=O)NC(CC(C)C)P(=O)(O)O` (centres undefined), for which the T/C was 106 % of control under setting [1], 101 % of control under setting [2] and 104 % of control under setting [3].

Turning to `NC(=O)C(CCCCNc1c(C(=O)O)cc([N+](=O)[O-])cc1[N+](=O)[O-])NC(=O)c1ccccc1` (centres undefined), the T/C (dose: 60.0 mg/kg/injection, schedule: Q01DX005 (ip), vehicle: saline) is 100 % of control; the T/C (dose: 120.0 mg/kg/injection, schedule: Q01DX005 (ip), vehicle: saline) is 105 % of control; the T/C (dose: 240.0 mg/kg/injection, schedule: Q01DX005 (ip), vehicle: saline) was 100 % of control.

`COc1ccc2nc(-n3[nH]c(C)c(-c4cc(C)[nH]n4)c3=O)cc(C)c2c1`: the T/C is, setting by setting: under setting [8], 91 % of control; under setting [9], 91 % of control; under setting [10], 90 % of control.

In the case of `Cn1cc(Cl)nc1CO`, the T/C reads like this: (dose: 50.0 mg/kg/injection, schedule: Q04DX003 (ip), vehicle: saline sonified) 95 % of control; (dose: 100.0 mg/kg/injection, schedule: Q04DX003 (ip), vehicle: saline sonified) 100 % of control; (dose: 200.0 mg/kg/injection, schedule: Q04DX003 (ip), vehicle: saline sonified) 100 % of control.

As for `COC(=O)N(c1ccccc1)c1ccccn1`, the T/C by setting is: under setting [1], 106 % of control; under setting [2], 97 % of control; under setting [3], 100 % of control.

As to `CCCCC1(CCCCCCCCC(O)CC(=O)OCC)OCCO1` (centres undefined), the T/C (dose: 100.0 mg/kg/injection, schedule: Q04DX002 (ip), vehicle: Klucel (hydroxypropylcellulose) (HPC)) was 104 % of control; the T/C (dose: 200.0 mg/kg/injection, schedule: Q04DX002 (ip), vehicle: Klucel (hydroxypropylcellulose) (HPC)) is 100 % of control; the T/C (dose: 400.0 mg/kg/injection, schedule: Q04DX002 (ip), vehicle: Klucel (hydroxypropylcellulose) (HPC)) is 96 % of control.

Take `O=C(NC1CCCCC1)C1C(=O)C(=O)N(C2CCCCC2)C1=O` (centres undefined): the T/C is 105 % of control under setting [8] and 98 % of control under setting [9].

For the molecule `CCCCN(CCCC)CCOc1ccc(/C(CC)=C(/CC)c2ccc(OCCN(CCCC)CCCC)cc2)cc1`, the T/C is 100 % of control (dose: 12.5 mg/kg/injection, schedule: Q01DX005 (ip), vehicle: saline); 87 % of control (dose: 25.0 mg/kg/injection, schedule: Q01DX005 (ip), vehicle: saline); 100 % of control and 102 % of control (dose: 50.0 mg/kg/injection, schedule: Q01DX005 (ip), vehicle: saline).

With `Oc1c(C(c2ccccc2)N2CCOCC2)ccc2ccccc12` (centres undefined), the T/C was 109 % of control under setting [4], 109 % of control under setting [5] and 104 % of control under setting [6].
